From PubChem BioAssay AID588780 (Sanford-Burnham Center for Chemical Genomics, 2011)
Active and inactive are the calls of the source.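 The calls were made as follows: active = compounds whose fitted half-maximal concentration in the cell-protection dose series is at or below a set limit; inactive = the rest.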

System: H9c2 cardiomyocytes, 2-deoxyglucose stress, ATP luminescence, 2 h
Assay: protection of cardiomyocytes from 2-deoxyglucose injury, dose response, cell-based, 2-deoxyglucose stress, uHTS hits (AID 588780)

Structure (SMILES)	IC50
CCOC(=O)c1ccc(-c2ccc(/C=C(\C#N)C(=O)NCC3CCCO3)o2)cc1 (stereo unspecified)	> 79 µM (inactive)
O=C(CCc1nc2ccccc2c(=O)[nH]1)OCCOc1ccc(Cl)cc1	31.3 µM (inactive)
COc1ccc(-c2cc(-c3nnc(COC(=O)C4CC4)o3)c3ccccc3n2)cc1OC	6.83 µM
Cc1cc(-n2c(C)cc(C(=O)COc3ccc4ccc(=O)oc4c3)c2C)no1	> 79 µM (inactive)
O=C1Nc2cnc(Cl)nc2Nc2ccccc21	> 79 µM (inactive)
O=C(CSc1nc2ccccc2c(=O)[nH]1)c1ccccc1	> 79 µM (inactive)
O=C1OCCN1C(=O)[C@H]1[C@H](c2ccc([N+](=O)[O-])cc2)C(c2ccc(F)cc2)=NN1c1ccc(Br)cc1	6.03 µM
CCc1nc2ccccc2c(C(=O)OCc2nc3ccccc3c(=O)[nH]2)c1C	23.1 µM
Cc1[nH]c(-c2ccccn2)nc(=S)c1Cl	> 79 µM (inactive)
COc1cccc(NC(=O)c2oc3ccc(S(=O)(=O)N4CCOCC4)cc3c2C)c1	> 79 µM (inactive)
Cc1c(C(=O)Nc2ccc3nc(N4CCOCC4)sc3c2)oc2ccccc12	> 79 µM (inactive)
COc1ccc(-c2nn3c(-c4ccccc4)nnc3s2)cc1OC	> 79 µM (inactive)
Nc1cc2[nH]c(=O)c3ccccc3c2cc1[N+](=O)[O-]	15.1 µM
CCCn1c(=O)c(C(=O)Nc2ccccc2)c(O)c2ccccc21	> 79 µM (inactive)
CS(=O)(=O)N(Cc1ccc(C(=O)NCCSc2ccccn2)cc1)c1ccccc1	> 79 µM (inactive)
COc1ccc(C(=O)NN/C=C/C(=O)c2ccc(Br)cc2)cc1	> 79 µM (inactive)
COc1ccccc1NC(=O)COc1ccc(C(=O)OCC(=O)NC(C)(C)C)cc1OC	17.6 µM
Cc1noc(C)c1Cn1nc(C(=O)O)c2ccccc2c1=O	> 79 µM (inactive)
CCOc1cc(/C=C(\C#N)C(=O)Nc2ccc(S(N)(=O)=O)cc2)ccc1OCCN1CCOCC1	> 79 µM (inactive)
COc1ccc(-c2cc(-c3nnc(COC(=O)c4ccncc4)o3)c3ccccc3n2)cc1OC	11.4 µM
COc1cc(-c2nnc(-c3ccc(N4CCOCC4)cc3)o2)cc(OC)c1OC	> 79 µM (inactive)
CCOc1cccc(-c2nn3c(-c4ccccn4)nnc3s2)c1	> 79 µM (inactive)
CC(C)(C)c1nn(-c2ccccc2)c2[nH]c(=O)c(CNCc3ccco3)cc12	40.3 µM (inactive)
CCOC(=O)C(Cc1ccc(NC(=O)/C(=C/c2ccc(OC(C)=O)cc2)NC(C)=O)cc1)N1C(=O)c2ccccc2C1=O (stereo unspecified)	> 79 µM (inactive)

Structure (SMILES)	IC50
Cc1c(C2Nc3ccccc3C(=O)N2O)cnn1C (stereo unspecified)	14.6 µM
CCn1nc(C(=O)NNC(=O)c2cc(Cl)ccc2OC)c2ccccc2c1=O	74 µM (inactive)
CC1(C)Cc2c(c(N3CCOCC3)nc3sc4c(NN)ncnc4c23)CS1	> 79 µM (inactive)
C[C@H](NC(=O)c1nc[nH]c1C(=O)NCC(=O)OCc1ccccc1)C(=O)OCc1ccccc1	> 79 µM (inactive)
CCOC(=O)C(C)Oc1ccc(C2NC(=O)NC(C)=C2C(C)=O)cc1Br (stereo unspecified)	> 79 µM (inactive)
O=C(Nc1nnc(C2CC2)s1)c1cc(-c2ccccc2)nn1-c1ccccc1	> 79 µM (inactive)
NC(=O)c1cccc2c1C(=O)N(C1CCCCC1)C2	> 79 µM (inactive)
COc1ccc(-c2nnc(NC(=O)c3ccc(F)cc3)o2)cc1	> 79 µM (inactive)
O=C(Nc1cccc2cccnc12)c1ccc2sc([C@H]3C[C@H](O)[C@@H](CO)O3)nc2c1	14.3 µM
CCOC(=O)N1CCN(S(=O)(=O)c2ccc(C(=O)NNc3nc4c(C)cccc4s3)cc2)CC1	> 79 µM (inactive)
COc1ccc(N(C(=O)c2cccc([N+](=O)[O-])c2)S(=O)(=O)c2cccs2)cc1	13.4 µM
O=C(C(=O)N(Cc1ccccc1)Cc1ccccc1)c1c(-c2ccccc2)[nH]c2ccccc12	> 79 µM (inactive)
Cc1ccc(-c2n[nH]c(=O)c3ccccc23)cc1S(=O)(=O)NC(C)(C)C	> 79 µM (inactive)
COc1ccc(OCC(O)Cn2c(Br)nc3c2c(=O)[nH]c(=O)n3C)cc1 (stereo unspecified)	38.7 µM (inactive)
O=C(Nc1cc(S(=O)(=O)N2CCOCC2)ccc1N1CCCCC1)c1cc(-c2ccccn2)nc2ccccc12	> 79 µM (inactive)
O=C(c1ccoc1)N1CCN(c2cc(-c3ccncc3)nc3cc(-c4cccc(Cl)c4)nn23)CC1	> 79 µM (inactive)
CN1CCc2nc3ccccc3c(C(=O)OCC(=O)N(CCC#N)c3ccccc3)c2C1	67.6 µM (inactive)
Cn1c(-c2ccc(Cl)cc2)cnc1N	> 79 µM (inactive)
O=C(Nc1ccc2c(c1)OCO2)c1cnn2c(C(F)(F)F)cc(-c3ccco3)nc12	7.33 µM
CC(C)(C)OC(=O)NCCCCCNC(=O)c1[nH]cnc1C(=O)Nc1cc(Br)ccc1F	> 79 µM (inactive)
Cc1nc(N2CCN(c3ccccn3)CC2)c2c(C)c(C(=O)Nc3ccc(F)cc3)sc2n1	> 79 µM (inactive)
Cc1nc(SCC(=O)N2CCN(c3ccccc3)CC2)c2oc3ccccc3c2n1	13.8 µM
Cc1ccc(NC(=O)c2nc[nH]c2C(=O)NCCCNC(=O)c2[nH]cnc2C(=O)Nc2ccc(C)cc2)cc1	21.5 µM
COc1ccc(-c2cc(=O)c3ccccc3[nH]2)cc1	65 µM (inactive)

Structure (SMILES)	IC50
CCN(CC)CCn1c(NC(=O)c2ccc(Cl)cc2)nc2ccccc21	> 79 µM (inactive)
O=C(Oc1ccc(N(Cc2cccs2)C2=NS(=O)(=O)c3ccccc32)cc1)c1ccccc1Cl	> 79 µM (inactive)
Cc1nc2ccccc2c2c(N)c3ccccc3n12	26.5 µM
Cc1ncc(CO)c2cc(C(=O)Nc3ccccc3Cl)c(=Nc3cccc(C(N)=O)c3)oc12	> 79 µM (inactive)
O=C(Nc1ccc2c(c1)[nH]c(=O)c1ccccc12)C(F)(F)F	> 79 µM (inactive)
COc1ccc(-c2cc(C(F)F)n3ncc(C(=O)Nc4ccc(C(=O)N5CCOCC5)cc4)c3n2)cc1	> 79 µM (inactive)
O=C(NCc1ccc2c(c1)OCO2)c1n[nH]c(=O)c2ccccc12	> 79 µM (inactive)
CC(NC(=O)Cn1nc(C(=O)O)c2ccccc2c1=O)c1ccccc1 (stereo unspecified)	> 79 µM (inactive)
CCOC(=O)Cc1csc(NC(=O)NC2(C(F)(F)F)Oc3ccccc3O2)n1	35.3 µM (inactive)
CCOC(=O)C1=C(COC(=O)/C=C/c2ccc(F)cc2)NC(=O)NC1C (stereo unspecified)	16.2 µM
COc1ccc(CCNC(=O)C(=O)NCC2CCCN2S(=O)(=O)c2cc(C)ccc2C)cc1 (stereo unspecified)	> 79 µM (inactive)
Cc1sc2nc(SCC(=O)N3CCCC3)[nH]c(=O)c2c1C	> 79 µM (inactive)
Cc1ccc(C)c(S(=O)(=O)N2CCN(C(=O)CCc3nc4ccccc4c(=O)[nH]3)CC2)c1	> 79 µM (inactive)
O=C(COC(=O)Cc1n[nH]c(=O)c2ccccc12)NNC(=O)c1ccc(Cl)cc1	> 79 µM (inactive)
CN(C)C(=O)C1C2NC(=S)N(c3cccc(Cl)c3)C1(C)Oc1ccc(Cl)cc12 (stereo unspecified)	66.7 µM (inactive)
C/C(=N\Nc1nnc2c3ccccc3n(C)c2n1)c1ccc(C)o1	> 79 µM (inactive)
O=C(C[C@@H]1C/C=C/CC[C@@H](Cc2ccc(F)cc2)C(=O)O[C@@H](c2ccccc2)CNC1=O)NCCO	15.1 µM
Cc1sc2nc(NCCO)[nH]c(=O)c2c1C	> 79 µM (inactive)
COc1cccc(C(=O)Nc2nnc(-c3ccc(Cl)cc3)o2)c1	14.9 µM
CC(C)(C)OC(=O)CNC(=O)c1[nH]cnc1C(=O)NC(c1ccccc1)c1ccccc1	19.2 µM
O=C1COc2ccc(-c3n[nH]c(=O)c4ccccc34)cc2N1	> 79 µM (inactive)
COc1cc(CCNc2ccc3nnc(-c4ccccc4)n3n2)cc(OC)c1OC	23.9 µM
Cc1ccc(OCC(=O)N/N=C/c2cccc3cccnc23)cc1	35.8 µM (inactive)
O=C(COC(=O)Cc1n[nH]c(=O)c2ccccc12)Nc1ncc(Cl)cc1Cl	> 79 µM (inactive)

Structure (SMILES)	IC50
CCOC(=O)c1cc(-c2ccc(/C=N\n3cnnc3)o2)ccc1Cl	> 79 µM (inactive)
Cn1c(C(=O)NCCc2ccsc2)cc2c(=O)n(C)c3ccccc3c21	> 79 µM (inactive)
O=C(Nc1cccc(NC(=O)c2ccc([N+](=O)[O-])o2)c1)c1ccco1	> 79 µM (inactive)
Cc1cc(C(=O)N/N=C/c2cc(Br)ccc2OC(=O)c2ccccc2Cl)n[nH]1	> 79 µM (inactive)
COc1ccc(CCNC(=O)c2cc3c(C)nccc3[nH]c2=O)cc1OC	16.3 µM
CC(=O)Nc1cc(C)nn1-c1nc2ccccc2s1	18 µM
COc1ccc(-c2nn(-c3ccccc3)cc2C(=O)Nc2nccs2)cc1	12.1 µM
Cc1sc2nc(SCC(=O)N3CCOCC3)[nH]c(=O)c2c1C	> 79 µM (inactive)
CCOC(=O)c1nn(-c2cccc(OC)c2)c2nc(Nc3ccccc3)cc(=O)n12	> 79 µM (inactive)
CCOC(=O)C1=C(CC)Nc2ccccc2N=C1NC(=O)c1ccc(S(=O)(=O)N(C)C)cc1	> 79 µM (inactive)
COc1ccc(-c2cc(-c3nnc(COC(=O)C4CC4C)o3)c3ccccc3n2)cc1OC (stereo unspecified)	> 79 µM (inactive)
CCOC(=O)C1=c2/c(=C/c3ccncc3)c(N)c(C(=O)OC)n2C(=O)C(c2ccncc2)S1 (stereo unspecified)	> 79 µM (inactive)
COc1cccc(NC(=O)NC2(C(F)(F)F)Oc3ccccc3O2)c1	16.9 µM
COc1ccc(N=Cc2cc(Cl)ccc2O)cc1Cl	> 79 µM (inactive)
O=C(CCS(=O)(=O)c1ccccc1)Nc1nc(-c2ccccn2)cs1	31.3 µM (inactive)
c1ccc(-c2nn3c(-c4ccco4)nnc3s2)nc1	43.9 µM (inactive)
c1ccc(-c2oc3ncnc(NCCN4CCOCC4)c3c2-c2ccccc2)cc1	23.2 µM
COc1ccc(-c2cc(=O)oc3c(C)c(O)c(CN(C)C)cc23)cc1	> 79 µM (inactive)
O=C(N/N=C/c1cccc2cccnc12)[C@H]1C[C@@H]1c1ccccc1	29.2 µM
COc1cccc(NC(=O)COc2cccc3c2CCNC3=O)c1	54.5 µM (inactive)
COc1ccc2cc3cc(C(=O)Nc4cc(OC)c(OC)c(OC)c4)oc3nc2c1	27.5 µM
Fc1ccc(CSc2ccc3nnc(-c4cccnc4)n3n2)cc1	26 µM
COc1cccc(Nc2nc(-c3sc(NC(=O)c4ccco4)nc3C)cs2)c1	> 79 µM (inactive)
CCCCn1nc(C(=O)Oc2ccc3c(C)cc(=O)oc3c2)c2ccccc2c1=O	> 79 µM (inactive)
